In patent publication US10766903B2 (ALMAC DISCOVERY LIMITED, priority 2016, dated 2020):

Each molecule was assayed against USP7 (Homo sapiens (Human), UniProt Q93009) (assay: USP7 fluorescence polarisation (FP) biochemical assay, ubiquitin-Lys-TAMRA substrate). Conditions: Table 4, biochemical assay; average of at least duplicate experiments; read-out: USP7 IC50.
Procedure, shortened: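 Full-length His6-USP7 (2.5 nM) incubated ± inhibitor (8-point dilutions, 200 to 0.1 μM before addition) in 50 mM HEPES pH 7.2, 150 mM NaCl, 0.5 mM EDTA, 5 mM DTT, 0.05% BSA, 0.05% CHAPS. Ubiquitin-Lys-TAMRA cleavage followed by FP (ex 530/em 575 nm) every 15 min for 1.5 h; normalised to no-compound control.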

Sequence of USP7 (Q93009 whole entry): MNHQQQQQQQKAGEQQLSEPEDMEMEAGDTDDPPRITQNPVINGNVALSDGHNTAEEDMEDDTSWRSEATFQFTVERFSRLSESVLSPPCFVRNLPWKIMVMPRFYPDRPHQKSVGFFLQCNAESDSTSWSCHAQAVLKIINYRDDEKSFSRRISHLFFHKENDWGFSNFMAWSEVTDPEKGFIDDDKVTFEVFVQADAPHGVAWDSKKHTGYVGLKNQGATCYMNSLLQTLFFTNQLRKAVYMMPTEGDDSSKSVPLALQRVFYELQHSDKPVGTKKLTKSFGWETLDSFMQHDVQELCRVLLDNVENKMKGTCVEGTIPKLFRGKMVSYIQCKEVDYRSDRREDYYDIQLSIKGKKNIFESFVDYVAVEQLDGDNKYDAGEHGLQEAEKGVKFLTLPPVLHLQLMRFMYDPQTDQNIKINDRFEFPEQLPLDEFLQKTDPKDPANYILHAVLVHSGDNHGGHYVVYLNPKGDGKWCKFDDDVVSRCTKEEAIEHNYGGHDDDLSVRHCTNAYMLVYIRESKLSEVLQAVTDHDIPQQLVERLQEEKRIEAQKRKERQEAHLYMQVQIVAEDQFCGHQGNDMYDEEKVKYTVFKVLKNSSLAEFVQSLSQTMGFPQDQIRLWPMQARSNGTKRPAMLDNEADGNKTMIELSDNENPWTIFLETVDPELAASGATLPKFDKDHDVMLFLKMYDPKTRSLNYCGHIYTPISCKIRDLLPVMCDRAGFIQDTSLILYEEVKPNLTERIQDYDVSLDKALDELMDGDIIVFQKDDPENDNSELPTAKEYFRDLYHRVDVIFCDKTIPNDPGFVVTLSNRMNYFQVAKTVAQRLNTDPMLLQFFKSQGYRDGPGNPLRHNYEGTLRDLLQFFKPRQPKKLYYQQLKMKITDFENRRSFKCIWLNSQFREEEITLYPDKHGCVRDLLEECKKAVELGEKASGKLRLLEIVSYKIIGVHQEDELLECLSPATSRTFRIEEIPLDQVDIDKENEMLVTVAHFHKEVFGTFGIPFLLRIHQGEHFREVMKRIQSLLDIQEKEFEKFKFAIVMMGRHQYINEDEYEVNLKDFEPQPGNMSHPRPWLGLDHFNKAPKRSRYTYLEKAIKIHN

Row | Compound | IC50
1 | C[C@H](CC(=O)N1CCC(O)(Cn2cnc(NCc3ccc(Cl)cc3)cc2=O)CC1)c1ccccc1 [Example 157, (R)-6-((4-chlorobenzyl)amino)-3-((4-hydroxy-1-(3-phenylbutanoyl)piperidin-4-yl)methyl)pyrimidin-4(3H)-one] | 1000 to 200000 nM
2 | C[C@H](CC(=O)N1CCC(O)(Cn2cnc(NCC(=O)N(C)C)cc2=O)CC1)c1ccccc1 [Example 161, (R)-2-((1-((4-hydroxy-1-(3-phenylbutanoyl)piperidin-4-yl)methyl)-6-oxo-1,6-dihydropyrimidin-4-yl)amino)-N,N-dimethylacetamide] | 1000 to 200000 nM
3 | C[C@H](CC(=O)N1CCC(O)(Cn2cnc(NCc3ccc4c(c3)OCCO4)cc2=O)CC1)c1ccccc1 [Example 162, (R)-6-(((2,3-dihydrobenzo[b][1,4]dioxin-6-yl)methyl)amino)-3-((4-hydroxy-1-(3-phenylbutanoyl)piperidin-4-yl)methyl)pyrimidin-4(3H)-one] | 1000 to 200000 nM
4 | C[C@H](CC(=O)N1CCC(O)(Cn2cnc(NCC3CCOCC3)cc2=O)CC1)c1ccccc1 [Example 163, (R)-3-((4-hydroxy-1-(3-phenylbutanoyl)piperidin-4-yl)methyl)-6-(((tetrahydro-2H-pyran-4-yl)methyl)amino)pyrimidin-4(3H)-one] | 1000 to 200000 nM
5 | C[C@H](CC(=O)N1CCC(O)(Cn2cnc(N3CC(C(=O)NCC4CC4)C3)cc2=O)CC1)c1ccccc1 [Example 164, (R)-N-(cyclopropylmethyl)-1-(1-((4-hydroxy-1-(3-phenylbutanoyl)piperidin-4-yl)methyl)-6-oxo-1,6-dihydropyrimidin-4-yl)azetidine-3-carboxamide] | 1000 to 200000 nM
6 | C[C@H](CC(=O)N1CCC(O)(Cn2cnc(N(C)CCO)cc2=O)CC1)c1ccccc1 [Example 166, (R)-3-((4-hydroxy-1-(3-phenylbutanoyl)piperidin-4-yl)methyl)-6-((2-hydroxyethyl)(methyl)amino)pyrimidin-4(3H)-one] | 1000 to 200000 nM
7 | Cc1nn(C)cc1Nc1cc(=O)n(CC2(O)CCN(C(=O)C[C@@H](C)c3ccccc3)CC2)cn1 [Example 170, (R)-6-((1,3-dimethyl-1H-pyrazol-4-yl)amino)-3-((4-hydroxy-1-(3-phenylbutanoyl)piperidin-4-yl)methyl)pyrimidin-4(3H)-one] | 1000 to 200000 nM
8 | C[C@H](CC(=O)N1CCC(O)(Cn2cnc(N(CCO)Cc3cccnc3)cc2=O)CC1)c1ccccc1 [Example 177, (R)-3-((4-hydroxy-1-(3-phenylbutanoyl)piperidin-4-yl)methyl)-6-((2-hydroxyethyl)(pyridin-3-ylmethyl)amino)pyrimidin-4(3H)-one] | 1000 to 200000 nM
9 | C[C@H](CC(=O)N1CCC(O)(Cn2cnc3c(-c4ccc(C5(N)CCC5)cc4)n(C)nc3c2=O)CC1)c1ccccc1 [Example 182, (R)-3-(4-(1-Aminocyclobutyl)phenyl)-6-((4-hydroxy-1-(3-phenylbutanoyl)piperidin-4-yl)methyl)-2-methyl-2H-pyrazolo[4,3-d]pyrimidin-7(6H)-one] | < 250 nM
10 | O=C(CCC1CCC1)N1CCC(O)(Cn2cnc(NCCN3CCCC3)cc2=O)CC1 [Example 183, 3-((1-(3-Cyclobutylpropanoyl)-4-hydroxypiperidin-4-yl)methyl)-6-((2-(pyrrolidin-1-yl)ethyl)amino)pyrimidin-4(3H)-one] | 1000 to 200000 nM
11 | O=C(C(C1CCC1)C1CCC1)N1CCC(O)(Cn2cnc(NCCN3CCCC3)cc2=O)CC1 [Example 184, 3-((1-(2,2-Dicyclobutylacetyl)-4-hydroxypiperidin-4-yl)methyl)-6-((2-(pyrrolidin-1-yl)ethyl)amino)pyrimidin-4(3H)-one] | 1000 to 200000 nM
12 | C[C@H](CC(=O)N1CCC(O)(Cn2cnc3c(nnn3-c3ccccc3)c2=O)CC1)c1ccccc1 [Example 185, (R)-6-((4-Hydroxy-1-(3-phenylbutanoyl)piperidin-4-yl)methyl)-3-phenyl-3H-[1,2,3]triazolo[4,5-d]pyrimidin-7(6H)-one] | < 250 nM
13 | O=C(CCC1CCC1)N1CCC(O)(Cn2cnc3c(nnn3-c3ccccc3)c2=O)CC1 [Example 186, 6-((1-(3-Cyclobutylpropanoyl)-4-hydroxypiperidin-4-yl)methyl)-3-phenyl-3H-[1,2,3]triazolo[4,5-d]pyrimidin-7(6H)-one] | 1000 to 200000 nM
14 | O=C(CC(C1CC1)C1CC1)N1CCC(O)(Cn2cnc3c(nnn3-c3ccccc3)c2=O)CC1 [Example 187, 6-((1-(3,3-Dicyclopropylpropanoyl)-4-hydroxypiperidin-4-yl)methyl)-3-phenyl-3H-[1,2,3]triazolo[4,5-d]pyrimidin-7(6H)-one] | 250 to 999 nM
15 | Cc1nc2c(=O)n(CC3(O)CCN(C(=O)C[C@@H](C)c4ccccc4)CC3)cnc2n1-c1ccccc1 [Example 188, (R)-1-((4-Hydroxy-1-(3-phenylbutanoyl)piperidin-4-yl)methyl)-8-methyl-9-phenyl-1H-purin-6(9H)-one] | < 250 nM

Now from value to molecule:

Row | IC50 | Compound
16 | 1000 to 200000 nM | C[C@H](CC(=O)N1CCC(O)(Cn2cnc(N3CCN(Cc4cccnc4)CC3)cc2=O)CC1)c1ccccc1 [Example 158, (R)-3-((4-hydroxy-1-(3-phenylbutanoyl)piperidin-4-yl)methyl)-6-(4-(pyridin-3-ylmethyl)piperazin-1-yl)pyrimidin-4(3H)-one]
17 | 1000 to 200000 nM | C[C@H](CC(=O)N1CCC(O)(Cn2cnc(N3CCN(Cc4ccccn4)CC3)cc2=O)CC1)c1ccccc1 [Example 159, (R)-3-((4-hydroxy-1-(3-phenylbutanoyl)piperidin-4-yl)methyl)-6-(4-(pyridin-2-ylmethyl)piperazin-1-yl)pyrimidin-4(3H)-one]
18 | 1000 to 200000 nM | C[C@H](CC(=O)N1CCC(O)(Cn2cnc(N3CCC(F)(F)CC3)cc2=O)CC1)c1ccccc1 [Example 160, (R)-6-(4,4-difluoropiperidin-1-yl)-3-((4-hydroxy-1-(3-phenylbutanoyl)piperidin-4-yl)methyl)pyrimidin-4(3H)-one]
19 | 1000 to 200000 nM | C[C@H](CC(=O)N1CCC(O)(Cn2cnc(N3CC(F)C3)cc2=O)CC1)c1ccccc1 [Example 165, (R)-6-(3-fluoroazetidin-1-yl)-3-((4-hydroxy-1-(3-phenylbutanoyl)piperidin-4-yl)methyl)pyrimidin-4(3H)-one]
20 | 1000 to 200000 nM | C[C@H](CC(=O)N1CCC(O)(Cn2cnc(N3CCN(C)C(=O)C3)cc2=O)CC1)c1ccccc1 [Example 168, (R)-3-((4-hydroxy-1-(3-phenylbutanoyl)piperidin-4-yl)methyl)-6-(4-methyl-3-oxopiperazin-1-yl)pyrimidin-4(3H)-one]
21 | 1000 to 200000 nM | C[C@H](CC(=O)N1CCC(O)(Cn2cnc(N3CC4(CCCO4)C3)cc2=O)CC1)c1ccccc1 [Example 169, (R)-3-((4-hydroxy-1-(3-phenylbutanoyl)piperidin-4-yl)methyl)-6-(5-oxa-2-azaspiro[3.4]octan-2-yl)pyrimidin-4(3H)-one]
22 | 1000 to 200000 nM | C[C@H](CC(=O)N1CCC(O)(Cn2cnc(N3CC4(CN(C)CCO4)C3)cc2=O)CC1)c1ccccc1 [Example 171, (R)-3-((4-hydroxy-1-(3-phenylbutanoyl)piperidin-4-yl)methyl)-6-(8-methyl-5-oxa-2,8-diazaspiro[3.5]nonan-2-yl)pyrimidin-4(3H)-one]
23 | 1000 to 200000 nM | C[C@H](CC(=O)N1CCC(O)(Cn2cnc(N3CC4(CCC4(F)F)C3)cc2=O)CC1)c1ccccc1 [Example 173, (R)-6-(5,5-difluoro-2-azaspiro[3.3]heptan-2-yl)-3-((4-hydroxy-1-(3-phenylbutanoyl)piperidin-4-yl)methyl)pyrimidin-4(3H)-one]
24 | 1000 to 200000 nM | C[C@H](CC(=O)N1CCC(O)(Cn2cnc(N3CCC4(CC3)COC4)cc2=O)CC1)c1ccccc1 [Example 175, (R)-3-((4-hydroxy-1-(3-phenylbutanoyl)piperidin-4-yl)methyl)-6-(2-oxa-7-azaspiro[3.5]nonan-7-yl)pyrimidin-4(3H)-one]

Same assay, conditions: USP7 IC50, Table 4, biochemical assay; average of at least duplicate experiments

Row | Compound | IC50
25 | C[C@H](CC(=O)N1CCC(O)(Cn2cnc(NC3CCCC3)cc2=O)CC1)c1ccccc1 [Example 167, (R)-6-(cyclopentylamino)-3-((4-hydroxy-1-(3-phenylbutanoyl)piperidin-4-yl)methyl)pyrimidin-4(3H)-one] | 250 to 999 nM
26 | C[C@H](CC(=O)N1CCC(O)(Cn2cnc(N3CC4(CCOCC4)C3)cc2=O)CC1)c1ccccc1 [Example 174, (R)-3-((4-hydroxy-1-(3-phenylbutanoyl)piperidin-4-yl)methyl)-6-(7-oxa-2-azaspiro[3.5]nonan-2-yl)pyrimidin-4(3H)-one] | 250 to 999 nM

Other lines, results leading:

Row | IC50 | Compound
27 | 250 to 999 nM | CC(=O)N1CC2(C1)CN(c1cc(=O)n(CC3(O)CCN(C(=O)C[C@@H](C)c4ccccc4)CC3)cn1)C2 [Example 172, (R)-6-(6-acetyl-2,6-diazaspiro[3.3]heptan-2-yl)-3-((4-hydroxy-1-(3-phenylbutanoyl)piperidin-4-yl)methyl)pyrimidin-4(3H)-one]
28 | 250 to 999 nM | C[C@H](CC(=O)N1CCC(O)(Cn2cnc(N3CC4(CCOC4)C3)cc2=O)CC1)c1ccccc1 [Example 176, (R)-3-((4-hydroxy-1-(3-phenylbutanoyl)piperidin-4-yl)methyl)-6-(6-oxa-2-azaspiro[3.4]octan-2-yl)pyrimidin-4(3H)-one]
29 | 250 to 999 nM | C[C@H](CC(=O)N1CCC(O)(Cn2cnc(N3CC4(CCCN4C)C3)cc2=O)CC1)c1ccccc1 [Example 178, (R)-3-((4-hydroxy-1-(3-phenylbutanoyl)piperidin-4-yl)methyl)-6-(5-methyl-2,5-diazaspiro[3.4]octan-2-yl)pyrimidin-4(3H)-one]
30 | 250 to 999 nM | C[C@H](CC(=O)N1CCC(O)(Cn2cnc(N3CCC4(COC4)C3)cc2=O)CC1)c1ccccc1 [Example 179, (R)-3-((4-hydroxy-1-(3-phenylbutanoyl)piperidin-4-yl)methyl)-6-(2-oxa-6-azaspiro[3.4]octan-6-yl)pyrimidin-4(3H)-one]
